In patent US10160755B2 (Plexxikon Inc., priority 2015, dated 2018):
Where a chain is given by its changes, count along the chain named.

Key:
[1] = biological target: T1, FLT3-D835Y (Homo sapiens, UniProt P36888, D835Y); experiment: FLT3-D835Y biochemical kinase assay (AlphaScreen)
T1 construct: purchased Invitrogen PV3967
T1 sequence (P36888 27-993 D835Y): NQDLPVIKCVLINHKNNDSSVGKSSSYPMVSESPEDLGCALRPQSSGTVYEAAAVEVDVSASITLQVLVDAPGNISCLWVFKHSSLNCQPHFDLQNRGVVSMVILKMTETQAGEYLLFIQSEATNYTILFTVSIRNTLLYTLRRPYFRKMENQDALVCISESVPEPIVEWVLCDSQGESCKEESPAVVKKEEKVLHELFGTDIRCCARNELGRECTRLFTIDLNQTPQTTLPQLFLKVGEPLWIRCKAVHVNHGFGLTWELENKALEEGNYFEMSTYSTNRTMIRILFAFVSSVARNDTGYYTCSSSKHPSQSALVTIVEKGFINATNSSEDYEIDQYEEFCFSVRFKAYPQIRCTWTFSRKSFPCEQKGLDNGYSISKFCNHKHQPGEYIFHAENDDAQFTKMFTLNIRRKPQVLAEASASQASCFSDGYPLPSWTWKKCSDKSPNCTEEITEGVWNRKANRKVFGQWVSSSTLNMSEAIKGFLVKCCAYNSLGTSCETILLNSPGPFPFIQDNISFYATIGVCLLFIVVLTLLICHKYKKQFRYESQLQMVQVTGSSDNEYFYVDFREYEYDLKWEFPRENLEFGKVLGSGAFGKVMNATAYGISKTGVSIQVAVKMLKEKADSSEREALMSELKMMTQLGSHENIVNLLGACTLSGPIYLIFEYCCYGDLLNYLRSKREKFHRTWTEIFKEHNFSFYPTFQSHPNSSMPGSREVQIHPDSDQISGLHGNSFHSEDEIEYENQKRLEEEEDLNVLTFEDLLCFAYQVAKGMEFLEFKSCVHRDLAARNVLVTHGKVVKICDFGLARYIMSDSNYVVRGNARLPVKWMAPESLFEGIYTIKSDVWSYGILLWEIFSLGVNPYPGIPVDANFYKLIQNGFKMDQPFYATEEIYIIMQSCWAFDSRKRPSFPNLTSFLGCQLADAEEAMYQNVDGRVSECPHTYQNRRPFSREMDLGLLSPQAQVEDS
Method in brief: (§1)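 Recombinant kinase, biotin-GG(EEEEY)10EE 30 nM final, ATP 10 μM (D835Y) / 100 μM (ITD). Stop/detect: SA donor beads 20 min RT, then PY20 acceptor beads 60 min RT. AlphaScreen 580 nm signal; IC50.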

[2] = biological target: T2, BA/F3-FLT3-ITD + F691L cells (Homo sapiens, UniProt P36888, F691L, cells depend on it, form not given); experiment: BA/F3-FLT3-ITD + F691L cell proliferation assay (CellTiter-Glo); type: cell-based, murine; settings: BaF3 FLT3 ITD/F691L cells; read-out: Cell Activity (IC50 μM) BaF3_FLT3_ITD/F691L
T2 sequence (P36888 1-993 F691L): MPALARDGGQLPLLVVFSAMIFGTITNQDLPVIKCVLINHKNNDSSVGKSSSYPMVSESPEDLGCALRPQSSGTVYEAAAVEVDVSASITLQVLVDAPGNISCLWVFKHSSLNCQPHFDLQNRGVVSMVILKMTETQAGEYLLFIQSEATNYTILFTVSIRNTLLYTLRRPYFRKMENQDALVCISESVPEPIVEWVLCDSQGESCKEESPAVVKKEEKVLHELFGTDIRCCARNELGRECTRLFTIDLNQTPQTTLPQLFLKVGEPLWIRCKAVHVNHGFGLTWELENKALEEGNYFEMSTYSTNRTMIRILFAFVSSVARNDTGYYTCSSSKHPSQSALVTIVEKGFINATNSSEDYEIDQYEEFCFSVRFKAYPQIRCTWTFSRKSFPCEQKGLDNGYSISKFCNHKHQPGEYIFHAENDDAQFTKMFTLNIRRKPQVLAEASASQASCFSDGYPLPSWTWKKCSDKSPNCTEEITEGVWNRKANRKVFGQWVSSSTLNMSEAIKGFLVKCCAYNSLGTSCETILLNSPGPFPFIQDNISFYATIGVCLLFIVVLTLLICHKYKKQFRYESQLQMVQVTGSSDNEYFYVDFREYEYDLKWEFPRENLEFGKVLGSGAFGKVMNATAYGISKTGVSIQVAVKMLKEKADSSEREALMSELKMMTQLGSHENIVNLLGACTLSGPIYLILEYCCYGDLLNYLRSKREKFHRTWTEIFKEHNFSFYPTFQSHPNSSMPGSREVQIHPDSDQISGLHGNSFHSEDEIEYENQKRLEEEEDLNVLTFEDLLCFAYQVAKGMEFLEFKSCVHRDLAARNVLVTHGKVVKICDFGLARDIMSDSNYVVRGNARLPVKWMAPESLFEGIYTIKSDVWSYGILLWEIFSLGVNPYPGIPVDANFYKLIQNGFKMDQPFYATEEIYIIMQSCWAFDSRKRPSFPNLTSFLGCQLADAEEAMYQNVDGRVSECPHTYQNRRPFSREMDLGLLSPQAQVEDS
Source text: The FLT3 inhibitors may also be assessed using leukemia cell lines that express endogenous FLT3-ITD or cells that are engineered to express wild-type or mutant FLT3. The cells expressing endogenous FLT3 are dependent upon FLT3 catalytic activity for growth. For the engineered cells, murine BA/F3 cells were transfected with full-length FLT3 (either wild-type, or containing the ITD, D835Y, or F691L mutations, as noted). The parental BA/F3 cells are dependent upon Interleukin-3 (IL-3) for survival, and introduction of the FLT3 constructs renders these cells dependent upon FLT3 kinase activity when cultured in the absence of IL-3. Engineered BA/F3 cell growth assays can be performed in either the absence or presence of IL-3, to assess the compound inhibition of FLT3 or to detect the presence of off-target activity, respectively. Inhibitors of FLT3 kinase activity reduce or eliminate the FLT3 oncogenic signaling, resulting in reduced cell proliferation. This inhibition is measured as a function of compound concentration to assess IC50 values.
Cells were seeded at 1×10^4 cells per well of a 96 well cell culture plate in 50 μl of cell culture medium. Compounds were dissolved in DMSO, typically at a concentration of 5 mM and were serially diluted 1:3 for a total of eight points and added to the cells to final concentrations of 10, 3.3, 1.1, 0.37, 0.12, 0.041, 0.014 and 0.0046 μM in 100 μl cell culture medium (final concentration 0.2% DMSO). […] The cells were incubated at 37° C., 5% CO2 for three days. CellTiter-Glo Buffer (Promega Cell Viability Assay catalog #G7573) and substrate were equilibrated to room temperature, and enzyme/substrate Recombinant Firefly Luciferase/Beetle Luciferin was reconstituted. The cell plates were equilibrated to room temperature for 30 minutes, then lysed by addition of an equivalent volume of the Celltiter-Glo Reagent. The plate was mixed for 10 minutes on a plate shaker to lyse the cells. The plates were read on a Tecan M1000 using Luminescence protocol modified to read 0.1 s per well. The luminescence reading assesses the ATP content, which correlates directly with cell number such that the reading as a function of compound concentration was used to determine the IC50 value.

[3] = biological target: T3, FLT3-ITD (Homo sapiens, UniProt P36888); experiment: FLT3-ITD biochemical kinase assay (AlphaScreen)
T3 construct: FLT3-ITD; Invitrogen #PV6190
T3 sequence (P36888 1-993): T2 sequence (P36888 1-993 F691L) with L691F
Method in brief: as §1

IC50 [1] [µM] | GI50 [2] [µM] | IC50 [3] [µM] | Structure (SMILES)
0.0001 to 1 | 0.0001 to 1 |  | c1cc(N2CCOCC2)ccc1-c1cnc2[nH]cc(-c3ccc4ncn(C5CCCNC5)c4c3)c2c1 (centres unmarked) [P-300, 4-[4-[3-[3-(3-piperidyl)benzimidazol-5-yl]-1H-pyrrolo[2,3-b]pyridin-5-yl]phenyl]morpholine]
0.0001 to 1 | 0.0001 to 1 |  | Cn1cnc2ccc(-c3c[nH]c4ncc(C(=O)Nc5cccc(F)c5)cc34)cc21 [P-177, N-(3-fluorophenyl)-3-(3-methylbenzimidazol-5-yl)-1H-pyrrolo[2,3-b]pyridine-5-carboxamide]
0.0001 to 1 | 0.0001 to 1 |  | COc1cnc2[nH]cc(-c3ccc4ncn(-c5ccc(F)c(Cl)c5)c4c3)c2c1 [P-109, 1-(3-chloro-4-fluoro-phenyl)-6-(5-methoxy-1H-pyrrolo[2,3-b]pyridin-3-yl)benzimidazole]
0.0001 to 1 | 0.0001 to 1 |  | c1cc(-c2cnc3[nH]cc(-c4ccc5ncn(C6CCCNC6)c5c4)c3n2)cc(N2CCOCC2)c1 (centres unmarked) [P-303, 4-[3-[7-[3-(3-piperidyl)benzimidazol-5-yl]-5H-pyrrolo[2,3-b]pyrazin-2-yl]phenyl]morpholine]
0.0001 to 1 | 0.0001 to 1 |  | CC(C)(C)n1cnc2ccc(-c3c[nH]c4ncc(-c5ccc(N6CCOCC6)cc5)cc34)cc21 [P-299, 4-[4-[3-(3-tert-butylbenzimidazol-5-yl)-1H-pyrrolo[2,3-b]pyridin-5-yl]phenyl]morpholine]
0.0001 to 1 | 0.0001 to 1 |  | CC(C)(C)n1cnc2ccc(-c3c[nH]c4ncc(-c5cccc(N6CCNCC6)c5)nc34)cc21 [P-302, 7-(3-tert-butylbenzimidazol-5-yl)-2-(3-piperazin-1-ylphenyl)-5H-pyrrolo[2,3-b]pyrazine]
0.0001 to 1 | 0.0001 to 1 |  | c1cc(-c2cnc3[nH]cc(-c4ccc5ncn(C6CCCNC6)c5c4)c3n2)cc(N2CCNCC2)n1 (centres unmarked) [P-308, 2-(2-piperazin-1-yl-4-pyridyl)-7-[3-(3-piperidyl)benzimidazol-5-yl]-5H-pyrrolo[2,3-b]pyrazine]
0.0001 to 1 | 0.0001 to 1 |  | N#Cc1cc(-c2cnc3[nH]cc(-c4ccc5ncn(C6CCCNC6)c5c4)c3n2)ccn1 (centres unmarked) [P-304, 4-[7-[3-(3-piperidyl)benzimidazol-5-yl]-5H-pyrrolo[2,3-b]pyrazin-2-yl]pyridine-2-carbonitrile]
 | 0.0001 to 1 | 0.0001 to 1 | CN1CCN(c2ccc(-c3cnc4[nH]cc(-c5ccc6ncn(C(C)(C)C)c6c5)c4n3)cn2)CC1 [P-333, 7-(3-tert-butylbenzimidazol-5-yl)-2-[6-(4-methylpiperazin-1-yl)-3-pyridyl]-5H-pyrrolo[2,3-b]pyrazine]
0.0001 to 1 |  | 0.0001 to 1 | N#Cc1cccc(-c2cnc3[nH]cc(-c4ccc5ncsc5c4)c3n2)c1 [P-181, 3-[7-(1,3-benzothiazol-6-yl)-5H-pyrrolo[2,3-b]pyrazin-2-yl]benzonitrile]
0.0001 to 1 |  | 0.0001 to 1 | FC(F)(F)Oc1cccc(-c2cnc3[nH]cc(-c4ccc5ncn(C6CCCNC6)c5c4)c3c2)c1 (centres unmarked) [P-203, 1-(3-piperidyl)-6-[5-[3-(trifluoromethoxy)phenyl]-1H-pyrrolo[2,3-b]pyridin-3-yl]benzimidazole]
0.0001 to 1 |  | 0.0001 to 1 | Cn1cnc2ccc(-c3c[nH]c4ncc(C#Cc5ccccc5)cc34)cc21 [P-139, 1-methyl-6-[5-(2-phenylethynyl)-1H-pyrrolo[2,3-b]pyridin-3-yl]benzimidazole]
0.0001 to 1 | 0.0001 to 1 |  | CC(C)(C)n1cnc2ccc(-c3c[nH]c4ncc(-c5ccnc(N6CCNCC6)c5)nc34)cc21 [P-307, 7-(3-tert-butylbenzimidazol-5-yl)-2-(2-piperazin-1-yl-4-pyridyl)-5H-pyrrolo[2,3-b]pyrazine]
